pIC50, pKi: −log10 of the molar value. The source made the active and inactive calls. The rule behind the calls is not given here. Numbered stars: 1 amine (or outer) side, 2 acyl side, 3 side chain; on linkers, the order of the positions; unused ones are H or OH. Bridge positions count the residues as written; N and C are the ends. Square brackets hold non-standard residues; d marks the D form. Peptide text beside a SMILES is read from it. I, II: the chains in the order shown. X1 = O=C(O)CC[C@@H](C(=O)[*:2])N(CCOCCOCCOCCOCCOCCO[*:3])[*:1]; R8 = C=CCCCCCC[C@@](C)(N)C(=O)O; S5 = C=CCCC[C@](C)(N)C(=O)O; Pra = C#CC[C@H](N)C(=O)O; AEA = NCCOCC(=O)O
Assays:
[1] = Non-competitve inhibition of recombinant APC/C/cdc20 (unknown origin) in metaphase-synchronized human HeLa cells co-expressing GST-tagged UBA1/UBE2C/methylated ubiquitin using RD680-labeled securin as substrate measured after 45 mins in presence of ATP by immuno-precipitation method; assay type: cell-based
[2] = Inhibition of recombinant APC/C/cdc20 (unknown origin) in metaphase-synchronized human HeLa cells co-expressing GST-tagged UBA1/UBE2C/methylated ubiquitin using RD680-labeled securin as substrate measured after 45 mins in presence of ATP by immuno-precipitation method
HeLa [3] = test: Inhibition of recombinant APC/C/cdc20 (unknown origin) in metaphase-synchronized human HeLa cells co-expressing GST-tagged UBA1/UBE2S/methylated ubiquitin using cyclin B1 as substrate assessed as decrease in UBE2S-driven chain elongation at 100 uM measured after 45 mins in presence of ATP by immuno-precipitation method; assay type: cell-based
HeLa [4] = test: Inhibition of recombinant APC/C/cdc20 (unknown origin) in metaphase-synchronized human HeLa cells co-expressing GST-tagged UBA1/UBE2C/methylated ubiquitin using cyclin B1 as substrate at 100 uM measured after 45 mins in presence of ATP by immuno-precipitation method
HeLa [5] = test: Inhibition of recombinant APC/C/cdc20 (unknown origin) in metaphase-synchronized human HeLa cells co-expressing GST-tagged UBA1/UBE2D1/methylated ubiquitin using cyclin B1 as substrate at 100 uM measured after 45 mins in presence of ATP by immuno-precipitation method
[6] = target: T1, Ubiquitin-conjugating enzyme E2 C (Homo sapiens) (UniProt O00762); test: Inhibition of UBE2C (unknown origin) auto-ubiquitination at 100 uM measured after 45 mins in presence of UBA1/His6-ubiquitin/ATP by SDS-PAGE analysis
T1 sequence (whole entry): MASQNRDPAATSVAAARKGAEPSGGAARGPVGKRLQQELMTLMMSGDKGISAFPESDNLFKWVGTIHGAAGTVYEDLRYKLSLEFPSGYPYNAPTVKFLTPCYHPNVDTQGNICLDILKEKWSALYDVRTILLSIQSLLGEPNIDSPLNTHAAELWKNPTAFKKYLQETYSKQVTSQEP

HeLa [7] = test: Inhibition of recombinant APC/C/cdc20 (unknown origin) in metaphase-synchronized human HeLa cells co-expressing GST-tagged UBA1/UBE2C/methylated ubiquitin using RD680-labeled securin as substrate at 100 uM measured after 45 mins in presence of ATP by immuno-precipitation method; assay type: cell-based
TERT-RPE1 = test: Effect on time length of mitosis in human RPE-1 cells at 50 uM measured for 10 to 24 hrs by bright field microscopy; assay type: functional, cell-based; settings: time 10-24 hrs
HeLa [8] = test: Inhibition of recombinant APC/C/cdc20 (unknown origin) in metaphase-synchronized human HeLa cells co-expressing GST-tagged UBA1/UBE2C/methylated ubiquitin using RD680-labeled securin as substrate at 25 uM measured after 45 mins in presence of ATP by immuno-precipitation method relative to control
HeLa [9] = test: Inhibition of recombinant APC/C/cdc20 (unknown origin) in metaphase-synchronized human HeLa cells co-expressing GST-tagged UBA1/UBE2S/methylated ubiquitin using cyclin B1 as substrate at 100 uM measured after 45 mins in presence of ATP by immuno-precipitation method; assay type: cell-based
Homo sapiens = species on record: Homo sapiens; test: Potency index, ratio of Apcin IC50 to test compound IC50 for inhibition of APC/C (unknown origin)
A549 = test: Induction of mitotic arrest in human A549 cells assessed as cells in prolongation at 50 uM measured up to 213 mins by time-lapse imaging analysis relative to control; assay type: functional; settings: 3.55 h
RKO = test: Induction of mitotic arrest in human RKO cells assessed as cells in prolongation at 50 uM measured up to 213 mins by time-lapse imaging analysis relative to control; assay type: functional; settings: 3.55 h
HT-1080 = test: Induction of mitotic arrest in human HT-1080 cells assessed as cells in prolongation at 50 uM measured up to 213 mins by time-lapse imaging analysis relative to control; assay type: functional; settings: 3.55 h
HeLa [10] = test: Induction of mitotic arrest in human HeLa cells assessed as time length at 50 uM measured up to 213 mins by time-lapse imaging analysis; assay type: functional; settings: 3.55 h
HeLa [11] = test: Induction of mitotic arrest in human HeLa cells assessed as prolongation in metaphase at 50 uM measured up to 213 mins by time-lapse imaging analysis; assay type: functional, cell-based
MDA-MB-231 = test: Effect on time length of mitosis in human MDA-MB-231 cells at 50 uM incubated for 10 to 24 hrs by live cell microscopy; assay type: functional, cell-based; settings: time 10-24 hrs
SW480 = test: Effect on time length of mitosis in human SW480 cells at 50 uM incubated for 10 to 24 hrs by live cell microscopy; assay type: functional, cell-based; settings: time 10-24 hrs
HeLa [12] = test: Induction of mitotic arrest in human HeLa cells assessed as cells in prolongation at 50 uM measured up to 213 mins by time-lapse imaging analysis relative to control; assay type: functional; settings: 3.55 h
[13] = target: T2, Polycomb complex protein BMI-1 (Homo sapiens) (UniProt P35226); test: Binding affinity to BMI1 in asynchronously growing human HeLa cells incubated for 30 mins by pull down assay; assay type: cell-based
T2 sequence (whole entry): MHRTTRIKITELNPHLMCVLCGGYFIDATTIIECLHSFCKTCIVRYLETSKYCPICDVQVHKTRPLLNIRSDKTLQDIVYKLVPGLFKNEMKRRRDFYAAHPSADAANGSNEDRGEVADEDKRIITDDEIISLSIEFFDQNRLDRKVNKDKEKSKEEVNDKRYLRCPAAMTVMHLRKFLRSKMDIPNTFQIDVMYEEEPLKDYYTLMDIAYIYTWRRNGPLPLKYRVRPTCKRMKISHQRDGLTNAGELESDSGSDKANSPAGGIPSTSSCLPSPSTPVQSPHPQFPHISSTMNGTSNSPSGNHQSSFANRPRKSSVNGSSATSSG

[14] = target: Breast cancer type 1 susceptibility protein (Homo sapiens) (UniProt P38398); test: Binding affinity to BRCA1 in asynchronously growing human HeLa cells incubated for 30 mins by pull down assay; assay type: cell-based
Sequence of Breast cancer type 1 susceptibility protein (Homo sapiens) (P38398 whole entry, looked up): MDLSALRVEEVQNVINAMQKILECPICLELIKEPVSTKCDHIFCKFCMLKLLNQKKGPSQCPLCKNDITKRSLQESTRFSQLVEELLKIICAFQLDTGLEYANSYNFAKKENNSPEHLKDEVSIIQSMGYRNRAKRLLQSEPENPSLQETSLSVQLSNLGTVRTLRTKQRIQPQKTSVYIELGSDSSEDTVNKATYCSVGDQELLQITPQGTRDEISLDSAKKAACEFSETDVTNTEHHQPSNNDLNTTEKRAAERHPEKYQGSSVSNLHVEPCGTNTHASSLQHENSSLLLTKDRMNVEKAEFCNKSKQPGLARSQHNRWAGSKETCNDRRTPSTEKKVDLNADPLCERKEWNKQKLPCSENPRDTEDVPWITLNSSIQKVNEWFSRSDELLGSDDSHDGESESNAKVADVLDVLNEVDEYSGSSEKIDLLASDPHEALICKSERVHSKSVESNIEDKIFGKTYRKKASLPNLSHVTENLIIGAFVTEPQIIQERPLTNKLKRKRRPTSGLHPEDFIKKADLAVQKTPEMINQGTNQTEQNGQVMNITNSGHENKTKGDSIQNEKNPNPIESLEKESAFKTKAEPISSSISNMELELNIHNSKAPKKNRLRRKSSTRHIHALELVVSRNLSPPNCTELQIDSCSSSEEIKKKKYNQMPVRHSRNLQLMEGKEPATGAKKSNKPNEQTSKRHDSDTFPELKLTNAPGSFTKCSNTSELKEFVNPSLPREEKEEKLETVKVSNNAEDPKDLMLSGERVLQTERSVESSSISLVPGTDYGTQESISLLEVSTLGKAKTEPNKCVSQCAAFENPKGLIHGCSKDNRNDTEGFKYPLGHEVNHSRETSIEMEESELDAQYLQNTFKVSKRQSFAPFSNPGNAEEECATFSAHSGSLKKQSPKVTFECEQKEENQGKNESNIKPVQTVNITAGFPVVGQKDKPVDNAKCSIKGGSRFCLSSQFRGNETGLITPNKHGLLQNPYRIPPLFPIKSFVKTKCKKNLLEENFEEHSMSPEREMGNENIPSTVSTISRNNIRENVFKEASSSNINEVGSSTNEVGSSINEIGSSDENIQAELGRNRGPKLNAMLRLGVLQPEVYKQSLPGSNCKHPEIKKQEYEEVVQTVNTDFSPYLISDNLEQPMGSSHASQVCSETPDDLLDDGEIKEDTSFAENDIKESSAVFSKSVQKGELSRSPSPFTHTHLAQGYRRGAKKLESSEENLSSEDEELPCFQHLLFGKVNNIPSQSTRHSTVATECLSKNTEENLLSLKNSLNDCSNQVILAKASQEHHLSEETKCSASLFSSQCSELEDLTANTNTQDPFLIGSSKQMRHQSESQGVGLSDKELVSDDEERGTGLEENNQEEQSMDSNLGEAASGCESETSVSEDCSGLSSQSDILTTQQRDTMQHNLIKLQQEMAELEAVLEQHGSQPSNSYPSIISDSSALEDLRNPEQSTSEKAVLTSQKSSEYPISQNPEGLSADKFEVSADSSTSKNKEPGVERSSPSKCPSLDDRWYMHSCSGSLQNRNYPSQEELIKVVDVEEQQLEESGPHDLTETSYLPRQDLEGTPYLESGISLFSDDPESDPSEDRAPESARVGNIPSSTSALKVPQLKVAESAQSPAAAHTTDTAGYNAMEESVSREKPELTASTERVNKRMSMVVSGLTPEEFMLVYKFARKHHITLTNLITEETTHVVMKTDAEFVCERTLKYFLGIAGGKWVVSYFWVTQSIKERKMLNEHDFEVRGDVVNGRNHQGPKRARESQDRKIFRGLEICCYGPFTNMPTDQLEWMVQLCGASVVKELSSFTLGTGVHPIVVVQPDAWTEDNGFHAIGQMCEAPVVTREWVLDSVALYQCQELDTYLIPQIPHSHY

[15] = target: E3 ubiquitin-protein ligase CBL (Homo sapiens) (UniProt P22681); test: Binding affinity to c-CBL in asynchronously growing human HeLa cells incubated for 30 mins by pull down assay; assay type: cell-based
[16] = target: Baculoviral IAP repeat-containing protein 2 (Homo sapiens) (UniProt Q13490); test: Binding affinity to c-IAP1 in asynchronously growing human HeLa cells incubated for 30 mins by pull down assay; assay type: cell-based
Sequence of Baculoviral IAP repeat-containing protein 2 (Homo sapiens) (Q13490 whole entry): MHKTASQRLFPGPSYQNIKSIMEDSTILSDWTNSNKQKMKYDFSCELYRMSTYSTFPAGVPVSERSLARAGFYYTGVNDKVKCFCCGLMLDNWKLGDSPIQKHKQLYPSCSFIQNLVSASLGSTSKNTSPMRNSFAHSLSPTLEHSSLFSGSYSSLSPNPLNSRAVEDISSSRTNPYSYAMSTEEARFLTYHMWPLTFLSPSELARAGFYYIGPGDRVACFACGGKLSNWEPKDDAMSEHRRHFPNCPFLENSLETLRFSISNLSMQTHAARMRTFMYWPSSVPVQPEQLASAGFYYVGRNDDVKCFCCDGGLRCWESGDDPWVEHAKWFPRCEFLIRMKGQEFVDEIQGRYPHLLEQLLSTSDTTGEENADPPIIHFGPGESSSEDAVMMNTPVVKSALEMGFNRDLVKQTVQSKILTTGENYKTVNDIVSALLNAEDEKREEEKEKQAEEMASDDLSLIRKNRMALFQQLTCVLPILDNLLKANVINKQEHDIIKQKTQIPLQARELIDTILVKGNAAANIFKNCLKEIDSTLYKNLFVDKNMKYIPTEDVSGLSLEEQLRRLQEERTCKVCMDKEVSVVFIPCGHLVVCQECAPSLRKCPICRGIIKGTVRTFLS

[17] = target: E3 ubiquitin-protein ligase Mdm2 (Homo sapiens) (UniProt Q00987); test: Binding affinity to MDM2 in asynchronously growing human HeLa cells incubated for 30 mins by pull down assay; assay type: cell-based
Sequence of E3 ubiquitin-protein ligase Mdm2 (Homo sapiens) (Q00987 whole entry, looked up): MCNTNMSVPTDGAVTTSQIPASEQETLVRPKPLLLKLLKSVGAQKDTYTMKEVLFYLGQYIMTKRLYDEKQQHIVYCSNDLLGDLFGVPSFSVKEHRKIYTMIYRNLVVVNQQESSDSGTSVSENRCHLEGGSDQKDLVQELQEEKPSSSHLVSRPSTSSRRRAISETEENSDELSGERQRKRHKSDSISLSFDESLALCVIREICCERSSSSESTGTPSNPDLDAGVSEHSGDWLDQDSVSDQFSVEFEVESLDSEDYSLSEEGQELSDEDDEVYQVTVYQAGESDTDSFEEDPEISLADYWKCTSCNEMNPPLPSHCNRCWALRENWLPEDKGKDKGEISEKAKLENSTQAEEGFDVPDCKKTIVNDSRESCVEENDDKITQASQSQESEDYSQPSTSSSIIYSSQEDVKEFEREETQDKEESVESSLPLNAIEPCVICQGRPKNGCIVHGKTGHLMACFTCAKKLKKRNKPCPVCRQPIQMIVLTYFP

[18] = target: E3 ubiquitin-protein ligase RBX1 (Homo sapiens) (UniProt P62877); test: Binding affinity to RBX1 in asynchronously growing human HeLa cells incubated for 30 mins by pull down assay; assay type: cell-based
Sequence of E3 ubiquitin-protein ligase RBX1 (Homo sapiens) (P62877 whole entry, looked up): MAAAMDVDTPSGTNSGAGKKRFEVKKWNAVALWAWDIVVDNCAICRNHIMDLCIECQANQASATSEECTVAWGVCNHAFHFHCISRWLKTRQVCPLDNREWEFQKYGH

[19] = target: Anaphase-promoting complex subunit 11 (Homo sapiens) (UniProt Q9NYG5); test: Binding affinity to APC11 in asynchronously growing human HeLa cells incubated for 30 mins by pull down assay; assay type: cell-based
Sequence of Anaphase-promoting complex subunit 11 (Homo sapiens) (Q9NYG5 whole entry, one chain of several): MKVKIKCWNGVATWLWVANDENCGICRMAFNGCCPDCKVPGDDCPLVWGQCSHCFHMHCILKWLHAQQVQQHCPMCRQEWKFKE

[20] = Drug localization in nucleoplasm of human HeLa cells at 50 uM incubated for 10 hrs by AF488 dye based analysis; assay type: ADME, subcellular
[21] = target: Anaphase-promoting complex subunit 11 (Homo sapiens) (UniProt Q9NYG5); test: Binding affinity to APC11 in asynchronous human HeLa cells incubated for 2 hrs by pull down assay; assay type: cell-based
HeLa [22] = test: Induction of mitosis prolongation in human HeLa cells assessed as time taken at 50 uM measured for 10 to 48 hrs by live cell imaging analysis; assay type: functional; settings: time 10-48 hrs
[23] = Drug localization in cytoplasm of human HeLa cells at 50 uM incubated for 10 hrs by AF488 dye based analysis; assay type: ADME, subcellular
HeLa [24] = test: Binding affinity to APC2 in asynchronous human HeLa cells incubated for 2 hrs by pull down assay; assay type: cell-based
[25] = Drug localization in nucleus of human HeLa cells at 50 uM incubated for 4 to 10 hrs by AF488 dye based analysis; assay type: ADME, subcellular; settings: time 4-10 hrs

CC[C@H](C)[C@@H]1NC(=O)[C@H](CCC(=O)O)NC(=O)[C@H](CCCCN)NC(=O)[C@H]([C@@H](C)CC)NC(=O)[C@](C)(NC(=O)[C@H](Cc2c[nH]c3ccccc23)NC(=O)[C@H](Cc2c[nH]c3ccccc23)NC(=O)[C@H](CCC(=O)O)NC(C)=O)CCCCCC/C=C\CCC[C@@](C)(C(=O)N[C@@H](CCCNC(=N)N)C(=O)N[C@@H](CCCNC(=N)N)C(=O)N[C@@H](C)C(N)=O)NC(=O)[C@H](CCCNC(=N)N)NC(=O)[C@H](CCC(N)=O)NC1=O (Ac-EWW[R8]IKEIQR[S5]RRA-NH2; staple (Z) 4-11) showed a pKi [1] of 5.30, a pIC50 [2] of 5.71 and an inhibition (HeLa [3]) of 100%. The inhibition (HeLa [4]) was “Active”, the inhibition (HeLa [5]) was “Active” and the inhibition [6] was “inactive”. For the same molecule, the inhibition (HeLa [7]) was “Active; Compound Exerted Better Inhibitory Effect Than Tame”, the Activity (TERT-RPE1) was “No effect” and the inhibition (HeLa [8]) was over 80%. The inhibition (HeLa [9]) was “Active” and the Ratio IC50 (Homo sapiens) was 4.5.

Work on CC[C@H](C)[C@@H]1NC(=O)[C@H](CCC(=O)O)NC(=O)[C@H](CCCCN)NC(=O)[C@H]([C@@H](C)CC)NC(=O)[C@](C)(NC(=O)[C@H](Cc2c[nH]c3ccccc23)NC(=O)[C@H](Cc2c[nH]c3ccccc23)NC(=O)[C@H](CCC(=O)O)NC(=O)COCCNC(=O)CNC(=O)[C@H](Cc2ccccc2)NC(=O)[C@H](Cc2c[nH]c3ccccc23)NC(=O)[C@H](Cc2ccccc2)NC(=O)CNC(C)=O)CCCCCC/C=C\CCC[C@@](C)(C(=O)N[C@@H](CCCNC(=N)N)C(=O)N[C@@H](CCCNC(=N)N)C(=O)N[C@@H](C)C(N)=O)NC(=O)[C@H](CCCNC(=N)N)NC(=O)[C@H](CCC(N)=O)NC1=O (Ac-GFWFG[AEA]EWW[R8]IKEIQR[S5]RRA-NH2; staple (Z) 10-17) yielded an Activity (A549) of 75%, an Activity (RKO) of 75% and an Activity (HT-1080) of 75%. For the same molecule, the Time (HeLa [10]) was “<=2 hr”, the Activity (HeLa [11]) was “Active” and the Activity (MDA-MB-231) was “No effect”. The Activity (SW480) was “No effect” and the Activity (HeLa [12]) was 75%.

For C#CC[C@H](NC(C)=O)C(=O)N[C@@H](CCCNC(=N)N)C(=O)N[C@H]1CSSC[C@@H](C(=O)N[C@@H](CCCNC(=N)N)C(N)=O)NC(=O)[C@H](Cc2c[nH]c3ccccc23)NC(=O)[C@H](Cc2ccccc2)NC(=O)[C@H]([C@@H](C)O)NC(=O)[C@H](CCCNC(=N)N)NC(=O)[C@@H]2CCCN2C(=O)CNC(=O)[C@H](Cc2c[nH]c3ccccc23)NC(=O)[C@H](Cc2cnc[nH]2)NC1=O (Ac-[Pra]RCHWGPRTFWCR-NH2; disulfide 3-12), the Activity [13] was “inactive”, the Activity [14] was “inactive” and the Activity [15] was “Active”. For the same molecule, the Activity [16] was “inactive”, the Activity [17] was “Active” and the Activity [18] was “inactive”. For the same molecule, the Activity [19] was “Active”.

With C#CC[C@H](NC(=O)[C@H](Cc1c[nH]c2ccccc12)NC(=O)[C@H](CCC(=O)O)NCCOCCOCCOCCOCCOCCOC(=O)CNC(=O)[C@H](Cc1ccccc1)NC(=O)[C@H](Cc1c[nH]c2ccccc12)NC(=O)[C@H](Cc1ccccc1)NC(=O)CNC(C)=O)C(=O)N[C@]1(C)CCCCCC/C=C\CCC[C@@](C)(C(=O)N[C@@H](CCCNC(=N)N)C(=O)N[C@@H](CCCNC(=N)N)C(=O)N[C@@H](C)C(N)=O)NC(=O)[C@H](CCCNC(=N)N)NC(=O)[C@H](CCC(N)=O)NC(=O)[C@H]([C@@H](C)CC)NC(=O)[C@H](CCC(=O)O)NC(=O)[C@H](CCCCN)NC(=O)[C@H]([C@@H](C)CC)NC1=O (I: H-[X1]W[Pra][R8]IKEIQR[S5]RRA-NH2 / II: Ac-GFWFG; ester I:1-II:C; staple (Z) I:4-I:11) the Drug uptake [20] was “Active”, the Activity [21] was “inactive” and the Time (HeLa [22]) was about 74 min. The Drug uptake [23] was “Active”, the Activity (HeLa [24]) was “inactive” and the Drug uptake [25] was “Active”.

Reference: ChEMBL document CHEMBL6109180, “De Novo-Designed APC/C Inhibitors Provide a Rationale for Targeting RING-Type E3 Ubiquitin Ligases” (J Med Chem, 2025)
